Our source for the EC50 values is patent US8207178B2 (priority 2007, dated 2012).

As a reminder, the EC50 is the concentration giving half of the maximal effect.

Read-outs that look alike come from different tables or passages of the source.

One test concerns HIV-1 K103N-L100I mutant. In words: microbe, parasite or virus in culture. The class given is cell-based, human immunodeficiency virus type 1 (HIV-1).
The subject of a further test is wild type HIV-1. The test can be described thus: microbe, parasite or virus in culture. Particulars: Human immunodeficiency virus 1, Hela-JC53. The class given is cell-based, human immunodeficiency virus type 1 (HIV-1).
The mark [1] stands for this setting: Human immunodeficiency virus 1, HeLa, read-out: EC50 mutant K103N-L100I, mutant K103N-L100I.

As for `Cc1cc(-c2ccnnc2)cc(C)c1Oc1nc(Nc2ccc(C#N)cc2)nc2ccn(C)c12` [Example 57, 4-(4-(2,6-dimethyl-4-(pyridazin-4-yl)phenoxy)-5-methyl-5H-pyrrolo[3,2-d]pyrimidin-2-ylamino) benzonitrile], the EC50 in the test with HIV-1 K103N-L100I mutant (setting [1]) is 1 to 10 nM; in the test on wild type HIV-1, less than 1 nM.

In the case of `Cc1cc(-c2ccc(N)cc2)cc(C)c1Oc1nc(Nc2ccc(C#N)cc2)nc2ccn(C)c12` [Example 54, 4-(4-(4′-Amino-3,5-dimethylbiphenyl-4-yloxy)-5-methyl-5H-pyrrolo[3,2-d]pyrimidin-2-ylamino) benzonitrile], the EC50 is more than 10 nM in the test with HIV-1 K103N-L100I mutant (setting [1]) and less than 1 nM in the test on wild type HIV-1.

In the case of `Cc1cc(-c2ccccc2S(=O)(=O)NC(C)(C)C)cc(C)c1Oc1nc(Nc2ccc(C#N)cc2)nc2ccn(C)c12` [Example 74, N-tert-butyl-4′-(2-(4-cyanophenylamino)-5-methyl-5H-pyrrolo[3,2-d]pyrimidin-4-yloxy)-3′,5′-dimethylbiphenyl-2-sulfonamide], the EC50 with HIV-1 K103N-L100I mutant (setting [1]) and in the test on wild type HIV-1 was more than 10 nM throughout.

Take `Cc1cc(-c2ccc(C(N)=O)cc2)cc(C)c1Oc1nc(Nc2ccc(C#N)cc2)nc2c1ncn2C` [Example 109, 4′-(2-(4-cyanophenylamino)-9-methyl-9H-purin-6-yloxy)-3′,5′-dimethylbiphenyl-4-carboxamide]: the concentration for a half-maximal effect (EC50) was 1 to 10 nM in the test on HIV-1 K103N-L100I mutant (setting [1]) and less than 1 nM in the test with wild type HIV-1.

As to `Cc1cc(-c2ccncn2)cc(C)c1Oc1nc(Nc2ccc(C#N)cc2)nc2ccn(C)c12` [Example 48, 4-(4-(2,6-Dimethyl-4-(pyrimidin-4-yl)phenoxy)-5-methyl-5H-pyrrolo [3,2-d]pyrimidin-2-ylamino)benzonitrile], the EC50 in the test on HIV-1 K103N-L100I mutant (setting [1]) and with wild type HIV-1 was 1 to 10 nM in each case.

For `Cc1cc(-c2ccncc2)cc(C)c1Oc1nc(Nc2ccc(C#N)cc2)nc2ncn(C)c12` [Example 107, 4-(6-(2,6-Dimethyl-4-(pyridin-4-yl)phenoxy)-7-methyl-7H-purin-2-ylamino)benzonitrile], the EC50 in the test with HIV-1 K103N-L100I mutant (setting [1]) and in the test on wild type HIV-1 was 1 to 10 nM each time.

On to `COc1cncc(-c2cc(C)c(Oc3nc(Nc4ccc(C#N)cc4)nc4ccn(C)c34)c(C)c2)c1` [Example 87, 4-(4-(4-(5-methoxypyridin-3-yl)-2,6-dimethylphenoxy)-5-methyl-5H-pyrrolo[3,2-d]pyrimidin-2-ylamino) benzonitrile], for which the EC50 was more than 10 nM in the test on HIV-1 K103N-L100I mutant (setting [1]) and 1 to 10 nM with wild type HIV-1.

Take `Cc1cc(-c2ccnnc2)cc(C)c1Oc1nc(Nc2ccc(C#N)cc2)nc2c1ncn2C` [Example 59, 4-(6-(2,6-Dimethyl-4-(pyridazin-4-yl)phenoxy)-9-methyl-9H-purin-2-ylamino)benzonitrile]: the EC50 is more than 10 nM in the test with HIV-1 K103N-L100I mutant (setting [1]) and 1 to 10 nM with wild type HIV-1.

For the compound `Cc1cc(-c2ccc(S(=O)(=O)N(C)C)cc2)cc(C)c1Oc1nc(Nc2ccc(C#N)cc2)nc2ccn(C)c12` [Example 42, 4′-(2-(4-Cyanophenylamino)-5-methyl-5H-pyrrolo[3,2-d]pyrimidin-4-yloxy)-N,N,3′,5′-tetramethylbiphenyl-4-sulfonamide], the results for the EC50 with HIV-1 K103N-L100I mutant (setting [1]) and in the test with wild type HIV-1 were more than 10 nM and 1 to 10 nM, respectively.

On to `Cc1cc(-c2ccc(C(=O)N3CCC3)cn2)cc(C)c1Oc1nc(Nc2ccc(C#N)cc2)nc2[nH]cnc12` [Example 125, 4-(6-(4-(5-(azetidine-1-carbonyl)pyridin-2-yl)-2,6-dimethylphenoxy)-9H-purin-2-ylamino)benzonitrile], for which the EC50 in the test on HIV-1 K103N-L100I mutant (setting [1]) and in the test on wild type HIV-1 was 1 to 10 nM each time.

In the case of `COC(=O)c1ccc(-c2cc(C)c(Oc3nc(Nc4ccc(C#N)cc4)nc4[nH]cnc34)c(C)c2)cn1` [Example 130, Methyl 5-(4-(2-(4-cyanophenylamino)-9H-purin-6-yloxy)-3,5-dimethylphenyl)picolinate], the figures for the EC50 with HIV-1 K103N-L100I mutant (setting [1]) and in the test on wild type HIV-1 were more than 10 nM and 1 to 10 nM, respectively.

`Cc1cc(-c2ccnn2C)cc(C)c1Oc1nc(Nc2ccc(C#N)cc2)nc2ccn(C)c12` [Example 25, 4-(4-(2,6-Dimethyl-4-(1-methyl-1H-pyrazol-5-yl)phenoxy)-5-methyl-5H-pyrrolo[3,2-d]pyrimidin-2-ylamino)benzonitrile]: the EC50 in the test with HIV-1 K103N-L100I mutant (setting [1]) and in the test with wild type HIV-1 was less than 1 nM throughout.

As for `Cc1cc(-c2ccc(C(=O)O)cc2)cc(C)c1Oc1nc(Nc2ccc(C#N)cc2)nc2ccn(C)c12` [Example 75, 4′-(2-(4-cyanophenylamino)-5-methyl-5H-pyrrolo[3,2-d]pyrimidin-4-yloxy)-3′,5′-dimethylbiphenyl-4-carboxylic acid], the EC50 was 1 to 10 nM in the test with HIV-1 K103N-L100I mutant (setting [1]) and less than 1 nM in the test on wild type HIV-1.

Regarding `Cc1cc(-c2cncnc2)cc(C)c1Oc1nc(Nc2ccc(C#N)cc2)nc2ccn(C)c12` [Example 14, 4-(4-(2,6-dimethyl-4-(pyrimidin-5-yl)phenoxy)-5-methyl-5H-pyrrolo[3,2-d]pyrimidin-2-ylamino) benzonitrile], the EC50 with HIV-1 K103N-L100I mutant (setting [1]) is 1 to 10 nM; in the test with wild type HIV-1 it was less than 1 nM.

As for `Cc1cc(-c2ccncc2C#N)cc(C)c1Oc1nc(Nc2ccc(C#N)cc2)nc2c(Cl)cn(C)c12` [Example 31, 4-(4-(7-Chloro-2-(4-cyanophenylamino)-5-methyl-5H-pyrrolo[3,2-d]pyrimidin-4-yloxy)-3,5-dimethyl-phenyl)nicotinonitrile], the EC50 with HIV-1 K103N-L100I mutant (setting [1]) and with wild type HIV-1 was less than 1 nM throughout.

As for `N#Cc1ccc(Nc2nc(Oc3c(Cl)cc(-c4ccncc4)cc3Cl)c3[nH]cnc3n2)cc1` [Example 104, 4-(6-(2,6-Dichloro-4-(pyridin-4-yl)phenoxy)-7H-purin-2-ylamino)benzonitrile], the EC50 with HIV-1 K103N-L100I mutant (setting [1]) and in the test with wild type HIV-1 was 1 to 10 nM in each case.

On to `CCOC(=O)c1ccc(-c2cc(C)c(Oc3nc(Nc4ccc(C#N)cc4)nc4nc[nH]c34)c(C)c2)cn1` [Example 120, Ethyl 5-(4-(2-(4-cyanophenylamino)-7H-purin-6-yloxy)-3,5-dimethylphenyl)picolinate], for which the EC50 in the test with HIV-1 K103N-L100I mutant (setting [1]) and in the test with wild type HIV-1 was more than 10 nM each time.

`Cc1cc(-c2ccncc2)cc(Cl)c1Oc1nc(Nc2ccc(C#N)cc2)nc2nc[nH]c12` [Example 100, 4-(6-(2-Chloro-6-methyl-4-(pyridin-4-yl)phenoxy)-7H-purin-2-ylamino)benzonitrile]: the concentration giving a half-maximal response (EC50) is more than 10 nM in the test on HIV-1 K103N-L100I mutant (setting [1]) and 1 to 10 nM in the test with wild type HIV-1.

With `Cc1cc(-c2ccncc2C#N)cc(C)c1Oc1nc(Nc2ccc(C#N)cc2)nc2ccn(C)c12` [Example 23, 4-(4-(2-(4-Cyanophenylamino)-5-methyl-5H-pyrrolo[3,2-d]pyrimidin-4-yloxy)-3,5-dimethyl-phenyl)nicotinonitrile], the EC50 is more than 10 nM with HIV-1 K103N-L100I mutant (read-out: EC50 mutant K103N-L100I, mutant K103N-L100I) and less than 1 nM with wild type HIV-1.

In the case of `Cc1cc(-c2cc3ccccc3[nH]2)cc(C)c1Oc1nc(Nc2ccc(C#N)cc2)nc2ccn(C)c12` [Example 86, 4-(4-(4-(1H-indol-2-yl)-2,6-dimethylphenoxy)-5-methyl-5H-pyrrolo[3,2-d]pyrimidin-2-ylamino)benzonitrile], the EC50 in the test on HIV-1 K103N-L100I mutant (setting [1]) and with wild type HIV-1 was more than 10 nM each time.

On to `Cc1cc(-c2ccccc2)cc(C)c1Oc1nc(Nc2ccc(C#N)cc2)nc2ccn(C)c12` [Example 95, 4-(4-(3,5-Dimethylbiphenyl-4-yloxy)-5-methyl-5H-pyrrolo[3,2-d]pyrimidin-2-ylamino)benzonitrile], for which the EC50 in the test on HIV-1 K103N-L100I mutant (setting [1]) and in the test on wild type HIV-1 was more than 10 nM in each case.

Take `COc1ccc(Cn2cnc3nc(Nc4ccc(C#N)cc4)nc(Oc4c(C)cc(-c5ccncc5)cc4Cl)c32)cc1` [Example 99, 4-(6-(2-chloro-6-methyl-4-(pyridin-4-yl)phenoxy)-7-(4-methoxybenzyl)-7H-purin-2-ylamino)benzonitrile]: the EC50 in the test on HIV-1 K103N-L100I mutant (setting [1]) was more than 10 nM; in the test with wild type HIV-1 it was 1 to 10 nM.

`Cc1cc(-c2cccc3cnccc23)cc(C)c1Oc1nc(Nc2ccc(C#N)cc2)nc2ccn(C)c12` [Example 39, 4-(4-(4-(Isoquinolin-5-yl)-2,6-dimethylphenoxy)-5-methyl-5H-pyrrolo[3,2-d]pyrimidin-2-ylamino) benzonitrile]: the EC50 with HIV-1 K103N-L100I mutant (setting [1]) and with wild type HIV-1 was more than 10 nM throughout.

In the case of `Cc1cc(-c2ccc(C(N)=O)cc2)cc(C)c1Oc1nc(Nc2ccc(C#N)cc2)nc2c(Cl)cn(C)c12` [Example 88, 4′-(7-chloro-2-(4-cyanophenylamino)-5-methyl-5H-pyrrolo[3,2-d]pyrimidin-4-yloxy)-3′,5′-dimethylbiphenyl-4-carboxamide], the EC50 in the test on HIV-1 K103N-L100I mutant (setting [1]) and in the test with wild type HIV-1 was 1 to 10 nM in each case.

As to `Cc1cc(-c2ccc(C(N)=O)cc2F)cc(C)c1Oc1nc(Nc2ccc(C#N)cc2)nc2c1ncn2C` [Example 56, 4′-(2-(4-Cyanophenylamino)-9-methyl-9H-purin-6-yloxy)-2-fluoro-3′,5′-dimethylbiphenyl-4-carboxamide], the EC50 with HIV-1 K103N-L100I mutant (setting [1]) and in the test with wild type HIV-1 was 1 to 10 nM each time.

On to `Cc1cc(-c2ccc(C(N)=O)nc2)cc(C)c1Oc1nc(Nc2ccc(C#N)cc2)nc2ncn(C)c12` [Example 118, 5-(4-(2-(4-cyanophenylamino)-7-methyl-7H-purin-6-yloxy)-3,5-dimethylphenyl)picolinamide], for which the EC50 in the test with HIV-1 K103N-L100I mutant (setting [1]) and with wild type HIV-1 was 1 to 10 nM throughout.

With `COc1ccc(Cn2cnc3c(Oc4ccc(-c5ccncc5)cc4)nc(Nc4c(C)cc(C#N)cc4C)nc32)cc1` [Example 105, 4-(9-(4-Methoxybenzyl)-6-(4-(pyridin-4-yl)phenoxy)-9H-purin-2-ylamino)-3,5-dimethylbenzonitrile], the EC50 in the test on HIV-1 K103N-L100I mutant (setting [1]) and in the test with wild type HIV-1 was more than 10 nM throughout.

Regarding `Cc1cc(-c2ccc(C(N)=O)cc2)cc(Cl)c1Oc1nc(Nc2ccc(C#N)cc2)nc2ncn(C)c12` [Example 116, 3′-chloro-4′-(2-(4-cyanophenylamino)-7-methyl-7H-purin-6-yloxy)-5′-methylbiphenyl-4-carboxamide], the EC50 with HIV-1 K103N-L100I mutant (setting [1]) was 1 to 10 nM; with wild type HIV-1, less than 1 nM.

`Cc1cc(-c2ccc(N(C)C)cc2)cc(C)c1Oc1nc(Nc2ccc(C#N)cc2)nc2ccn(C)c12` [Example 22, 4-(4-(4′-(Dimethylamino)-3,5-dimethylphenyl-4-yloxy)-5-methyl-5H-pyrrolo[3,2-d]pyrimidin-2-ylamino)benzonitrile]: the EC50 in the test with HIV-1 K103N-L100I mutant (setting [1]) is more than 10 nM; in the test on wild type HIV-1, 1 to 10 nM.
